# In US8618289B2 (Ambit Biosciences Corporation, priority 2008, dated 2013):
# Like-named read-outs stand apart in the source and are kept apart here.
# Columns and labels:
# [1] = molecular target: T1, RAF kinases (Homo sapiens, UniProt P04049); settings: read-out: RAF1 Kd; RAF1
# Description: (§1) Competition binding assays used herein were developed, validated and performed as described in Fabian et al., Nature Biotechnology 2005, 23, 329-336. […] The liganded beads were blocked with excess biotin and washed with blocking buffer (SeaBlock (Pierce), 1% BSA, 0.05% Tween 20, 1 mM DTT) to remove unbound ligand and to reduce non-specific binding. […] Test compounds were prepared as 100× stocks in DMSO and rapidly diluted into the aqueous environment. DMSO was added to control assays lacking a test compound. Primary screen interactions were performed in polypropylene 384-well plates in a final volume of 34 μt, while Kd determinations were performed in polystyrene 96-well plates in a final volume of 135 pt. […] The kinase concentration in the eluates was measured by quantitative PCR. Each kinase was tested individually against each compound. Kds were determined using eleven serial threefold dilutions. A selectivity score, which is a quantitative measure of selectivity of a compound against a panel of enzymes, may be calculated for a compound by dividing the number of enzymes for which a compound meets a set criteria, (for example, a binding constant of 100 nM or less), by the total number of enzymes tested. […] (Note, for those compounds tested in a larger kinase panel, as indicated by an asterisk (*) next to the S35 score, the divisor is 321 (i.e. the larger panel contains 321 distinct kinases, excluding mutant variants.)).
# [2] = molecular target: T2, RAF kinases (Homo sapiens, UniProt P15056); settings: read-out: BRAF WT Kd; BRAF WT
# Description: as §1
# [3] = tested on: MEK1 phosphorylation in the A375 human melanoma cell line; experiment: cells; settings: A-375, read-out: pMEK IC50
# Description: A375 cells (from American Type Culture Collection) were plated at 50,000 cells per well in DMEM (Mediatech) with 10% fetal bovine serum (Omega Scientific) into a 96 well plate and incubated overnight in a 37° C. incubator with 10% CO2. The cells were then washed with PBS and the medium replaced with 0.5% FBS for incubation overnight. […] The cells were incubated with compound or control for two hours at 37° C. The compound solution was aspirated off and the cells washed with cold PBS. […] The plate was centrifuged for 30 minutes to pellet out the cell debris. The cleared lysates were transferred to a 96-well Nunc plate and the ELISA protocol described by the manufacturer in Catalog #KHO0321 or KHO0291 was followed.
# [4] = tested on: A375 cells; experiment: cells; settings: Homo sapiens, A-375, read-out: A375 Viability EC50
# [5] = molecular target: T3, RAF kinases (Homo sapiens, UniProt P15056, V600E); experiment: biochemical
# Description: as §1
# [6] = molecular target: T3, RAF kinases; settings: read-out: BRAF V600E Kd; BRAF V600E
# Description: as §1
# [7] = tested on: 290 distinct kinases tested excluding mutant variants (321 in the larger panel)
# Description: as §1
# [8] = molecular target: T1, RAF kinases; experiment: biochemical
# Description: as §1
# [9] = molecular target: T2, RAF kinases; experiment: biochemical
# Description: as §1
# [10] = no asterisk: panel of 290 distinct kinases
# [11] = asterisk: panel of 321 distinct kinases
# T3 sequence (P15056 whole entry V600E): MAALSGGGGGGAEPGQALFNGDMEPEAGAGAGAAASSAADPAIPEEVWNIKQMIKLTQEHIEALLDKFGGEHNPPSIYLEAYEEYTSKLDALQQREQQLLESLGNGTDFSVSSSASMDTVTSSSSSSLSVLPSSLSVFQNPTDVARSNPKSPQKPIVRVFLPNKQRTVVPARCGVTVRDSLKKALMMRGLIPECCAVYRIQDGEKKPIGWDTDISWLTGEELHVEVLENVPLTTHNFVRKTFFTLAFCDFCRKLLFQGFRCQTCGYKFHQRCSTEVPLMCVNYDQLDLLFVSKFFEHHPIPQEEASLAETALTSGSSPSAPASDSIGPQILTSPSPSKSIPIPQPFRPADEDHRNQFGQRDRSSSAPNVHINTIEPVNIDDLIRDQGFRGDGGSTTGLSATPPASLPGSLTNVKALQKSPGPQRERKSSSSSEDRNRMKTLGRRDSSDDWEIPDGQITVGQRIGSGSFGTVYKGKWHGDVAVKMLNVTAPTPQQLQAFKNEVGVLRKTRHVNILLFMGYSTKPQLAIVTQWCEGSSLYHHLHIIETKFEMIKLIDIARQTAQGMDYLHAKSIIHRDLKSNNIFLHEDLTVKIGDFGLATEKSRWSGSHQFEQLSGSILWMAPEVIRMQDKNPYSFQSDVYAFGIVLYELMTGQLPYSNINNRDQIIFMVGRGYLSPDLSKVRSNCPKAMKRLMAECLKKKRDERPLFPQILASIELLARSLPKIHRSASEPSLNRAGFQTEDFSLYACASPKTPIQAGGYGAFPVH
# T2 sequence (P15056 whole entry): as the sequence (P15056 whole entry V600E) above, with E600V counted along it
# T1 sequence (P04049 whole entry): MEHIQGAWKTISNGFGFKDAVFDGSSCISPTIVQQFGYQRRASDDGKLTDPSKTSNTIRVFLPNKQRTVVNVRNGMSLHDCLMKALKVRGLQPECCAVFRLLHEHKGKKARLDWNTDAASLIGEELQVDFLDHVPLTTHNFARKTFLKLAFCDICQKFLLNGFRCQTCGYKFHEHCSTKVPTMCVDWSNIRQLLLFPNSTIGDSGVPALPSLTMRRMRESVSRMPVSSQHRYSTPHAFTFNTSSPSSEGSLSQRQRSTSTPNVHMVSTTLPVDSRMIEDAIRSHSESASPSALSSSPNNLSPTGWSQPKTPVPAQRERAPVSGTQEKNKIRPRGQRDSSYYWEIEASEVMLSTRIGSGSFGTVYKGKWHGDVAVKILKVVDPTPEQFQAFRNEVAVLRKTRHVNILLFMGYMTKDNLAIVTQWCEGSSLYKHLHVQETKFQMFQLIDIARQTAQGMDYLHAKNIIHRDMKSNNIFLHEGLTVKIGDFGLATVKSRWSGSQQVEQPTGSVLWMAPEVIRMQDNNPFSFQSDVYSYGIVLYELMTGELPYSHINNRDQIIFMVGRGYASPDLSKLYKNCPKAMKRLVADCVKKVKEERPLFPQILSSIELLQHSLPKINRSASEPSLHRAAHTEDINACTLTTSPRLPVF
Kd [1],Kd [2],IC50 [3],EC50 [4],Kd [5],Structure (SMILES),Kd [6],"S35 [7, 10]",Kd [8],Kd [9],"S35 [7, 11]"
> 1000 nM,> 1000 nM,< 250 nM,> 1000 nM,500 to 1000 nM,"COCCOc1cc2ncnc(Oc3cccc(NC(=O)Nc4cc(C(C)(CF)CF)nn4-c4ccccc4)c3)c2cc1OC [Ex 228, 1-[3-(1,3-difluoro-2-methylpropan-2-yl)-1-phenyl-1H-pyrazol-5-yl]-3-{3-[6-methoxy-7-(2-methoxyethoxy)quinazolin-4-yloxy]phenyl}urea]",–,–,–,–,–
> 1000 nM,> 1000 nM,500 to 1000 nM,> 1000 nM,500 to 1000 nM,"CCOC(=O)Cn1nc(C(C)(C)C)cc1NC(=O)Nc1cccc(Sc2ncnc3cc(OCCOC)c(OC)cc23)c1 [Ex 237, ethyl 2-[3-tert-butyl-5-(3-{3-[6-methoxy-7-(2-methoxyethoxy)quinazolin-4-ylthio]phenyl}ureido)-1H-pyrazol-1-yl]acetate]",–,–,–,–,–
> 1000 nM,> 1000 nM,> 1000 nM,> 1000 nM,250 to 500 nM,"COc1cc2ncnc(Oc3cccc(NC(=O)Nc4cc(C(C)(C)CN5CCOCC5)on4)c3)c2cc1OC [Ex 302, 1-(3-(6,7-dimethoxyquinazolin-4-yloxy)phenyl)-3-(5-(2-methyl-1-morpholinopropan-2-yl)isoxazol-3-yl)urea]",–,–,–,–,–
–,–,–,–,–,COc1cc(OC2CCOCC2)c2c(Sc3cccc(NC(=O)Nc4cc(C(C)(C)C)on4)c3)ncnc2c1,–,C (0.20 < C ≦ 0.40),–,–,–
> 1000 nM,> 1000 nM,500 to 1000 nM,> 1000 nM,250 to 500 nM,"COCCOc1cc2ncnc(Oc3cccc(NC(=O)Nc4cc(C(F)(F)F)n(-c5ccccc5)n4)c3)c2cc1OC [Ex 225, 1-{3-[6-methoxy-7-(2-methoxyethoxy)quinazolin-4-yloxy]phenyl}-3-[1-phenyl-5-(trifluoromethyl)-1H-pyrazol-3-yl]urea]",–,–,–,–,–
> 1000 nM,> 1000 nM,250 to 500 nM,> 1000 nM,500 to 1000 nM,"COCCOc1cc2ncnc(Oc3cccc(NC(=O)Nc4cc(C(F)(F)F)nn4-c4ccc(F)cc4)c3)c2cc1OC [Ex 226, 1-[1-(4-fluorophenyl)-3-(trifluoromethyl)-1H-pyrazol-5-yl]-3-{3-[6-methoxy-7-(2-methoxyethoxy)quinazolin-4-yloxy]phenyl}urea]",–,–,–,–,–
> 1000 nM,> 1000 nM,> 1000 nM,> 1000 nM,250 to 500 nM,"COCCOc1cc2ncnc(Oc3cccc(NC(=O)Nc4cc(C5CCOCC5)no4)c3)c2cc1OC [Ex 216, 1-(3-(6-methoxy-7-(2-methoxyethoxy)quinazolin-4-yloxy)phenyl)-3-(3-(tetrahydro-2H-pyran-4-yl)isoxazol-5-yl)urea]",–,–,–,–,–
> 1000 nM,> 1000 nM,> 1000 nM,> 1000 nM,500 to 1000 nM,"COCCOc1cc2ncnc(Sc3cccc(NC(=O)Nc4ccc(C(F)(F)F)c(F)c4)c3)c2cc1OC [Ex 231, 1-(3-fluoro-4-(trifluoromethyl)phenyl)-3-(3-(6-methoxy-7-(2-methoxyethoxy)quinazolin-4-ylthio)phenyl)urea]",–,–,–,–,–
> 1000 nM,> 1000 nM,< 250 nM,250 to 500 nM,250 to 500 nM,"COc1cc2ncnc(Oc3cc(NC(=O)Nc4cc(C(F)(F)F)nn4-c4ccccc4)c(F)cc3F)c2cc1OC [Ex 271, 1-(5-(6,7-dimethoxyquinazolin-4-yloxy)-2,4-difluorophenyl)-3-(1-phenyl-3-(trifluoromethyl)-1H-pyrazol-5-yl)urea]",–,–,–,–,–
> 1000 nM,> 1000 nM,250 to 500 nM,250 to 500 nM,500 to 1000 nM,"COCCOc1cc2ncnc(Oc3cccc(NC(=O)Nc4cc(C(F)(F)F)nn4-c4ccc(C)cc4)c3)c2cc1OC [Ex 227, 1-{3-[6-methoxy-7-(2-methoxyethoxy)quinazolin-4-yloxy]phenyl}-3-[1-p-tolyl-3-(trifluoromethyl)-1H-pyrazol-5-yl]urea]",–,–,–,–,–
> 1000 nM,> 1000 nM,> 1000 nM,> 1000 nM,500 to 1000 nM,"COCCOc1cc2ncnc(Sc3cccc(NC(=O)Nc4ccc(C(F)(F)F)c(OC)c4)c3)c2cc1OC [Ex 233, 1-(3-methoxy-4-(trifluoromethyl)phenyl)-3-(3-(6-methoxy-7-(2-methoxyethoxy)quinazolin-4-ylthio)phenyl)urea]",–,–,–,–,–
> 1000 nM,> 1000 nM,< 250 nM,> 1000 nM,500 to 1000 nM,"COCCOc1cc2ncnc(Sc3cccc(NC(=O)Nc4cc(C(C)(C)C)nn4-c4ccc(C)cc4C)c3)c2cc1OC [Ex 283, 1-(3-tert-butyl-1-(2,4-dimethylphenyl)-1H-pyrazol-5-yl)-3-(3-(6-methoxy-7-(2-methoxyethoxy)quinazolin-4-ylthio)phenyl)urea]",–,–,–,–,–
> 1000 nM,> 1000 nM,250 to 500 nM,< 250 nM,250 to 500 nM,"COc1cc2ncnc(Oc3cccc(NC(=O)Nc4cc(C(F)(F)C(F)(F)F)nn4-c4ccccc4)c3)c2cc1OC [Ex 304, 1-(3-(6,7-dimethoxyquinazolin-4-yloxy)phenyl)-3-(3-(perfluoroethyl)-1-phenyl-1H-pyrazol-5-yl)urea]",–,–,–,–,–

Structure (SMILES),Kd [1],Kd [2],IC50 [3],EC50 [4],Kd [5],Kd [6],"S35 [7, 10]",Kd [8],Kd [9],"S35 [7, 11]"
"COc1cc2ncnc(Oc3cccc(NC(=O)Nc4cc(C(C)(C)C)nn4-c4cccnc4)c3)c2cc1OC [Ex 322, 1-(3-tert-butyl-1-(pyridin-3-yl)-1H-pyrazol-5-yl)-3-(3-(6,7-dimethoxyquinazolin-4-yloxy)phenyl)urea]",–,–,< 250 nM,–,–,< 250 nM,D (D > 0.40),250 to 500 nM,250 to 500 nM,–
"COc1cc2ncnc(Oc3ccc(Cl)c(NC(=O)Nc4cc(C(F)(F)F)nn4-c4ccccc4)c3)c2cc1OC [Ex 300, 1-(2-chloro-5-(6,7-dimethoxyquinazolin-4-yloxy)phenyl)-3-(1-phenyl-3-(trifluoromethyl)-1H-pyrazol-5-yl)urea]",> 1000 nM,> 1000 nM,250 to 500 nM,> 1000 nM,500 to 1000 nM,–,–,–,–,–
"COc1cc2ncnc(Oc3cccc(NC(=O)Nc4cc(C(C)(C)C)nn4-c4cncc(F)c4)c3)c2cc1OC [Ex 326, 1-(3-tert-butyl-1-(5-fluoropyridin-3-yl)-1H-pyrazol-5-yl)-3-(3-(6,7-dimethoxyquinazolin-4-yloxy)phenyl)urea]",–,–,< 250 nM,–,–,< 250 nM,D (D > 0.40),500 to 1000 nM,500 to 1000 nM,–
"COc1cc2ncnc(Oc3cccc(NC(=O)Nc4cc(C(C)(C)C)nn4-c4ccncc4)c3)c2cc1OC [Ex336, 1-(3-tert-butyl-1-(pyridin-4-yl)-1H-pyrazol-5-yl)-3-(3-(6,7-dimethoxyquinazolin-4-yloxy)phenyl)urea]",–,–,< 250 nM,–,–,< 250 nM,D (D > 0.40),500 to 1000 nM,500 to 1000 nM,–
"COc1cc2ncnc(Sc3cccc(NC(=O)Nc4cc(C(C)(C)C)nn4-c4ccncc4)c3)c2cc1OC [Ex 337, 1-(3-tert-butyl-1-(pyridin-4-yl)-1H-pyrazol-5-yl)-3-(3-(6,7-dimethoxyquinazolin-4-ylthio)phenyl)urea]",–,–,< 250 nM,–,–,< 250 nM,D (D > 0.40),500 to 1000 nM,500 to 1000 nM,–
"COc1cc2ncnc(Sc3cccc(NC(=O)Nc4cc(C(C)(C)C)nn4CC(C)C)c3)c2cc1OC [Ex 333, 1-(3-tert-butyl-1-isobutyl-1H-pyrazol-5-yl)-3-(3-(6,7-dimethoxyquinazolin-4-ylthio)phenyl)urea]",–,–,500 to 1000 nM,–,–,< 250 nM,C (0.20 < C ≦ 0.40),250 to 500 nM,250 to 500 nM,–
"COc1cc2ncnc(Sc3cccc(NC(=O)Nc4cc(C(C)(C)C)nn4-c4cncc(F)c4)c3)c2cc1OC [Ex 327, 1-(3-tert-butyl-1-(5-fluoropyridin-3-yl)-1H-pyrazol-5-yl)-3-(3-(6,7-dimethoxyquinazolin-4-ylthio)phenyl)urea]",–,–,< 250 nM,–,–,< 250 nM,D (D > 0.40),500 to 1000 nM,500 to 1000 nM,–
"COc1cc2ncnc(Sc3cccc(NC(=O)Nc4cc(C(F)(F)F)n(C)n4)c3)c2cc1OC [Ex 194, 1-[3-(6,7-dimethoxyquinazolin-4-ylthio)phenyl]-3-[1-methyl-5-(trifluoromethyl)-1H-pyrazol-3-yl]urea]",–,–,250 to 500 nM,500 to 1000 nM,–,–,–,–,–,C* (0.20 < C ≦ 0.40)
"COc1cc2ncnc(Oc3cccc(NC(=O)Nc4cc(C(C)(C)C)nn4-c4ccc(C#N)cc4)c3)c2cc1OC [Ex 328, 1-(3-tert-butyl-1-(4-cyanophenyl)-1H-pyrazol-5-yl)-3-(3-(6,7-dimethoxyquinazolin-4-yloxy)phenyl)urea]",–,–,< 250 nM,–,–,< 250 nM,D (D > 0.40),250 to 500 nM,250 to 500 nM,–
"COc1cc2ncnc(Sc3cccc(NC(=O)Nc4cc(C(F)(F)F)n(-c5ccccc5)n4)c3)c2cc1OC [Ex 170, 1-[3-(6,7-dimethoxyquinazolin-4-ylthio)phenyl]-3-[1-phenyl-5-(trifluoromethyl)-1H-pyrazol-3-yl]urea]",–,–,250 to 500 nM,250 to 500 nM,–,–,–,–,–,B* (0.10 < B ≦ 0.20)
